Experimental data as given in US9180118B2, “Thiadiazolidinone derivatives” (University of Rochester, priority 2006, dated 2015).

Columns and labels:
primary AML specimens = test: Viability of primary AML specimens, Annexin V/7-AAD flow cytometry; type: cell-based, human
Procedure: The cells were isolated and processed as described. […] All drug treatments were performed in triplicate. […] Total viable cell numbers were determined using a flow cytometric apoptosis assay as described. Briefly, after 18 h of treatment, specimens were labeled with anti-CD34-PE (Becton Dickinson, San Jose, Calif.) for 20 minutes. […] The total number of events collected was 100,000. The percent viable cells was defined as AnnexinV^neg/7-AAD^neg cells on total (ungated) cells and on gates set for CD34^+ populations. • [1] Jordan, C. T., et al., The interleukin-3 receptor alpha chain is a unique marker for human acute myelogenous leukemia stem cells. Leukemia, 2000. 14(10): p. […] Lansdorp, P. M. and W. Dragowska, Long-term erythropoiesis from constant numbers of CD34+ cells in serum-free cultures initiated with highly purified progenitor cells from human bone marrow. […] Guzman, M. L., et al., Nuclear factor-kappaB is constitutively activated in primitive human acute myelogenous leukemia cells. […] 98(8): p.

primary ALL specimens = test: Viability of primary ALL specimens, Annexin V/7-AAD; type: cell-based; settings: Homo sapiens, 24 h; read-out: mean viability relative to untreated controls
CD34+CD38− bcCML cells = type: cell-based; settings: Homo sapiens, 24 h
CD34+CD10− ALL cells = test: Viability of CD34+CD10− cells from ALL specimens; type: cell-based; settings: Homo sapiens, 24 h
[1] = type: cell-based; settings: human, CD34+CD38− cells gated from healthy (normal) specimens
normal progenitor cells = test: Methylcellulose colony assay, normal specimens; type: cell-based, human; settings: 20 μM TDZD-8, 18 hours before plating, n=12
Procedure: (§1) Cells were then plated at 50,000 cells/ml in Methocult™ GF H4534 (1% methylcellulose in IMDM, 30% FBS, 1% BSA, 10^−4M 2-mercaptoethanol, 2 mM L-glutamine, 50 ng/ml rh stem cell factor, 10 ng/ml rh GM-CSF, 10 ng/ml rh IL-3-Stem Cell Technologies, Vancouver, B.C.) supplemented with 3 units/ml of erythropoietin and 50 ng/ml G-CSF (R&D Systems, Minneapolis, Minn.). Colonies were scored after 10-14 days of culture.

AML progenitor cells = test: Methylcellulose colony assay, AML; type: cell-based, human; settings: 20 μM TDZD-8, 18 hours before plating, n=11
Procedure: as §1

[2] = system: normal CB cells (hematopoietic stem cells); test: NOD/SCID xenotransplant engraftment of normal CB cells treated in culture; type: in vivo, human; settings: cells cultured 18 hours with 20 μM TDZD-8; n=3; NOD/SCID mice
Procedure: NOD/SCID (NOD.CB17-prdkdc scid/J) mice (Jackson Laboratories, Bar Harbor, Me.) were sub-lethally irradiated with 270 rad using a RadSource™ X-ray irradiator the day before transplantation. Cells to be assayed (AML or normal umbilical cord blood—CB) were injected via tail vein (5-10 million cells) in a final volume of 0.2 ml of PBS with 0.5% FBS. After 6-8 weeks, animals were sacrificed and BM was isolated.

[3] = system: normal specimens (BM or CB); test: Membrane integrity by YoPro-1 uptake, normal specimens; type: cell-based, human; settings: 20 μM TDZD-8 for 15 min
Procedure: C. […] Cells were then washed with PBS and stained to assess membrane permeability using annexin V-Allophycocyanin (APC) and the vital dyes: Yo-[…] (0.1 uM), Hoescht 33342 (2.5 ug/ml), and Propidium Iodide (0.5 ug/ml) (Molecular Probes).

[4] = system: plasma membrane localized PKCα and β in primary CD34+ AML and ALL cells; test: Immunoblot of membrane fractions for PKCα and PKCβ; type: cell-based, human; settings: TDZD-8 for 1 hour
Procedure: Immunoblots. Cells were prepared and analyzed as previously described.^35 Membrane fractions were prepared using mem-PER eukaryotic membrane protein extraction kit as per manufacturer's instructions (Pierce; Rockford, Ill.). Blots were probed with phospho-PKC (pan) (beta II; Ser660), phospho-PKCalpha/betaII (Thr638/641), total PKCα, PKCβ and FLT3 (Santa Cruz Biotechnology, Calif.), Caspase-3 (Cell Signaling technologies; Danvers, Mass.); caspase-8 and PARP (BD bioscience), cleaved PARP (abcam) or anti-actin (AC-15; Sigma) antibodies.

[5] = system: cell lines derived from hematologic malignancies; test: NCI-60 screen, average; type: cell-based; settings: Homo sapiens; average over hematologic lines of NCI-60; read-out: average concentration to achieve 50% growth inhibition (GI50)
Excerpt: (§2) In contrast the cell viability for normal specimens was 79.5% (n=13).

All other tumor lines = test: NCI-60 screen, other lines; type: cell-based; settings: Homo sapiens; NCI-60, non-hematologic lines; read-out: concentration up to which no growth inhibition was shown
Excerpt: as §2

GSK3B (GSK3 beta) = GSK3B (GSK3 beta) (Homo sapiens, UniProt P49841); test: Kinase assay (single point and titration); type: biochemical; settings: TDZD-8 20 μM
ABL1 = ABL1 (Homo sapiens, UniProt P00519); test: Kinase assay; type: biochemical
Procedure: (§3) Kinase Assays: Single point and titration assays are performed using protocols (or essentially using protocols) know in the art for kinase activity profiling against a battery of kinase targets, including, for example, those specifically delineated herein. Such assays include, for example, those available from commercial sources, contract research laboratories, and the like.

CSNK2A1 (CK2 alpha 1) = CSNK2A1 (CK2 alpha 1) (Homo sapiens, UniProt P68400); test: Kinase assay; type: biochemical
Procedure: as §3

Jak2 = Jak2 (Homo sapiens, UniProt O60674); test: Kinase assay; type: biochemical; settings: TDZD-8 20 μM
Procedure: as §3

PRKCB2 (PKC beta II) = PRKCB2 (PKC beta II) (Homo sapiens, UniProt P05771); test: Kinase assay; type: biochemical
Procedure: as §3

STK6 (Aurora A) = STK6 (Aurora A) (Homo sapiens, UniProt O14965); test: Kinase assay; type: biochemical
Procedure: as §3

TEK (Tie2) = TEK (Tie2) (Homo sapiens, UniProt Q02763); test: Kinase assay; type: biochemical
Procedure: as §3

CK-II = CK-II (Homo sapiens, UniProt P68400); settings: reported; cited from earlier work
PKC = settings: reported; cited from earlier work

Chain of GSK3B (GSK3 beta) (P49841 whole entry): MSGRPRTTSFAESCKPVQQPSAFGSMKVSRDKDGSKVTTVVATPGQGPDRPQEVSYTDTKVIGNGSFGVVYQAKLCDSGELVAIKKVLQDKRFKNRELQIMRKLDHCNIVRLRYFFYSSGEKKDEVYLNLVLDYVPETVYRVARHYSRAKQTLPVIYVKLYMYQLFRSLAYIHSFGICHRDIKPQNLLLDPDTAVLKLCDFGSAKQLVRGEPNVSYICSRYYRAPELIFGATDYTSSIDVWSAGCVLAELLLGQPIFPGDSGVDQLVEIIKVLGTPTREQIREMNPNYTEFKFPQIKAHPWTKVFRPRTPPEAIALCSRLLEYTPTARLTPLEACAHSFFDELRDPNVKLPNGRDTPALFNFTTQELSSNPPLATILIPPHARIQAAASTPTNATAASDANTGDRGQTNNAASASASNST
Chain of TEK (Tie2) (Q02763 23-1124, species assumed): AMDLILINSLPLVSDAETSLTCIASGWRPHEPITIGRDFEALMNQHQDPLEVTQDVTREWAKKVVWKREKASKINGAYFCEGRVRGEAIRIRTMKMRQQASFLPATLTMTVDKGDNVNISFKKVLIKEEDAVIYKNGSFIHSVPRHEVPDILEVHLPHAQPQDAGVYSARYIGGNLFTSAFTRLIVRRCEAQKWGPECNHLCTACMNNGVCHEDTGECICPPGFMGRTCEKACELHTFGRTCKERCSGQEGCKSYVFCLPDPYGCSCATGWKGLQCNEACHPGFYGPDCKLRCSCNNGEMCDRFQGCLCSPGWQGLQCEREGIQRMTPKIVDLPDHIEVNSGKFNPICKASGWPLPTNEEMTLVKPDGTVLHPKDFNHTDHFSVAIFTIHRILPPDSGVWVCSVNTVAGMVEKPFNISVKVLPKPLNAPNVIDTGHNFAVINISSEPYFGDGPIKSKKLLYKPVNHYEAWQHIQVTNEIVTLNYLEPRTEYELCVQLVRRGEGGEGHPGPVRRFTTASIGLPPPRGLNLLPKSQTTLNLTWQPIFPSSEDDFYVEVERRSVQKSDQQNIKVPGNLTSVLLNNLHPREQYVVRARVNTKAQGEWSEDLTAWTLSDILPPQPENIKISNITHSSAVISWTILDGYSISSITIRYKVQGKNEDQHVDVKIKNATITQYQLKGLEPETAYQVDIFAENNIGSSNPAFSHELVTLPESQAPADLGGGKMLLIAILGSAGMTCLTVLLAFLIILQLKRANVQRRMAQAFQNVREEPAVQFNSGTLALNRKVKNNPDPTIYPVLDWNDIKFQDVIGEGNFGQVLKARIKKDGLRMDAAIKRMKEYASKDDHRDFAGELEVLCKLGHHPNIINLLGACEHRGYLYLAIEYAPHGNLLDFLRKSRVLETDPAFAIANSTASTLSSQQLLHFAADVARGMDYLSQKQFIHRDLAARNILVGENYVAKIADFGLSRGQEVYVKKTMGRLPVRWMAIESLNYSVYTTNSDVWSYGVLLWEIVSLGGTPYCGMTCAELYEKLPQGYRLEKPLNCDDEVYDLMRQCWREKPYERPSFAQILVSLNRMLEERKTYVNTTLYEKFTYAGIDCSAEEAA
Chain of STK6 (Aurora A) (O14965 whole entry, species assumed): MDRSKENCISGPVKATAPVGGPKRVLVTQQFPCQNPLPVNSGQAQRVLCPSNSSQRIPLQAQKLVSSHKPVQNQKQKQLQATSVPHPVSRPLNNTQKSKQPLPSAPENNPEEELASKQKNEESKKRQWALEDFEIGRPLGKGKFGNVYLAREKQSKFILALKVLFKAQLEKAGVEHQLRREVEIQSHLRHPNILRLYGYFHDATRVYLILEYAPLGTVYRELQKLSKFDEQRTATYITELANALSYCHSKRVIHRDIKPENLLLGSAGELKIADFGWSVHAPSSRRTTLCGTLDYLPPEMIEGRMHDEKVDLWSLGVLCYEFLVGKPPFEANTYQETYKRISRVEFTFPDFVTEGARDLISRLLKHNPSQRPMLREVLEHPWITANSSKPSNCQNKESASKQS
Chain of PRKCB2 (PKC beta II) (P05771 1-673 isoform P05771-2): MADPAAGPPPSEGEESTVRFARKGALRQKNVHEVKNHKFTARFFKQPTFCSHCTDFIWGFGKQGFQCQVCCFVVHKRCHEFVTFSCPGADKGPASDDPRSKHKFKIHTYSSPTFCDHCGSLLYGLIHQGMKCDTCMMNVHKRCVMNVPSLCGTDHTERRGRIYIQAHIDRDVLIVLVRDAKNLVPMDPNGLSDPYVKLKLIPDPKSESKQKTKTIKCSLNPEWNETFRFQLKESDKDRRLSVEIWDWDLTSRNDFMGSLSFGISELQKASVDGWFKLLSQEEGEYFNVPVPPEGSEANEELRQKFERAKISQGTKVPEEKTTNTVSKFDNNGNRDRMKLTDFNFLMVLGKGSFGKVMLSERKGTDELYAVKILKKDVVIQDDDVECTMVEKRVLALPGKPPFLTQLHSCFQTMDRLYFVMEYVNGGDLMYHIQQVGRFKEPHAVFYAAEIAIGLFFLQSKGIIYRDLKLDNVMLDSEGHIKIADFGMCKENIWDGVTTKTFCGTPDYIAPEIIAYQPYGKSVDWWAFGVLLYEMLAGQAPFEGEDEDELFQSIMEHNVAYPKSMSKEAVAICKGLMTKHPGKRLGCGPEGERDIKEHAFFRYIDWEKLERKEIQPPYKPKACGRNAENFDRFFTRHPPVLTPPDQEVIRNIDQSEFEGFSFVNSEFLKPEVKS
Chain of ABL1 (P00519 whole entry): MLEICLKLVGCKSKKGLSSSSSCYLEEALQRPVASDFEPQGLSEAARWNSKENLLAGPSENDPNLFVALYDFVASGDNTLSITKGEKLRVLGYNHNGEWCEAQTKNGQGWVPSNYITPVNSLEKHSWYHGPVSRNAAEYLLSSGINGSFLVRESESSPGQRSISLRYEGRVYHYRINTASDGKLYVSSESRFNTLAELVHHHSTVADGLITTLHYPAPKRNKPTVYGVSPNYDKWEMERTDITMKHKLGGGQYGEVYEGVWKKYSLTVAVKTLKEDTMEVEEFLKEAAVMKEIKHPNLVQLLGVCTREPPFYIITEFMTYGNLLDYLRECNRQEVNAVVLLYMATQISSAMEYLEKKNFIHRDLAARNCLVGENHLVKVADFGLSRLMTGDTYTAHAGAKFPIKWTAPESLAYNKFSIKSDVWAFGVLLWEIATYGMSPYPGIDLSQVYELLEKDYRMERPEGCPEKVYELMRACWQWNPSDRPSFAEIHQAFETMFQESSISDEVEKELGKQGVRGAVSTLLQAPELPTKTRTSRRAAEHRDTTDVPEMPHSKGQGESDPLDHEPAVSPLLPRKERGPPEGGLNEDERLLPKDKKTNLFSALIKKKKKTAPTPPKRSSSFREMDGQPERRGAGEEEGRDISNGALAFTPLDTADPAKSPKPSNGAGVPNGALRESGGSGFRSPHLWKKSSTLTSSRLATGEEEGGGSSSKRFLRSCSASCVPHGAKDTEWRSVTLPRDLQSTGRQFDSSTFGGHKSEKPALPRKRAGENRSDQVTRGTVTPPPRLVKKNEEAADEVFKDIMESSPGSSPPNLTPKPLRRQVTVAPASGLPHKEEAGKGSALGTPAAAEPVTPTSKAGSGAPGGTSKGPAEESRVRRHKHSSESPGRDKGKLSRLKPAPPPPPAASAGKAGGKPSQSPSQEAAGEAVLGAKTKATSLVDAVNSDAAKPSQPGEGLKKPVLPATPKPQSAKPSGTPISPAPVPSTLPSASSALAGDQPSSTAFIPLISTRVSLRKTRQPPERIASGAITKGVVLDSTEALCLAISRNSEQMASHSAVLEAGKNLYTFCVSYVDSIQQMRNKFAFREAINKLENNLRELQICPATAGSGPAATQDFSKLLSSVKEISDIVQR
Chain of Jak2 (O60674 whole entry): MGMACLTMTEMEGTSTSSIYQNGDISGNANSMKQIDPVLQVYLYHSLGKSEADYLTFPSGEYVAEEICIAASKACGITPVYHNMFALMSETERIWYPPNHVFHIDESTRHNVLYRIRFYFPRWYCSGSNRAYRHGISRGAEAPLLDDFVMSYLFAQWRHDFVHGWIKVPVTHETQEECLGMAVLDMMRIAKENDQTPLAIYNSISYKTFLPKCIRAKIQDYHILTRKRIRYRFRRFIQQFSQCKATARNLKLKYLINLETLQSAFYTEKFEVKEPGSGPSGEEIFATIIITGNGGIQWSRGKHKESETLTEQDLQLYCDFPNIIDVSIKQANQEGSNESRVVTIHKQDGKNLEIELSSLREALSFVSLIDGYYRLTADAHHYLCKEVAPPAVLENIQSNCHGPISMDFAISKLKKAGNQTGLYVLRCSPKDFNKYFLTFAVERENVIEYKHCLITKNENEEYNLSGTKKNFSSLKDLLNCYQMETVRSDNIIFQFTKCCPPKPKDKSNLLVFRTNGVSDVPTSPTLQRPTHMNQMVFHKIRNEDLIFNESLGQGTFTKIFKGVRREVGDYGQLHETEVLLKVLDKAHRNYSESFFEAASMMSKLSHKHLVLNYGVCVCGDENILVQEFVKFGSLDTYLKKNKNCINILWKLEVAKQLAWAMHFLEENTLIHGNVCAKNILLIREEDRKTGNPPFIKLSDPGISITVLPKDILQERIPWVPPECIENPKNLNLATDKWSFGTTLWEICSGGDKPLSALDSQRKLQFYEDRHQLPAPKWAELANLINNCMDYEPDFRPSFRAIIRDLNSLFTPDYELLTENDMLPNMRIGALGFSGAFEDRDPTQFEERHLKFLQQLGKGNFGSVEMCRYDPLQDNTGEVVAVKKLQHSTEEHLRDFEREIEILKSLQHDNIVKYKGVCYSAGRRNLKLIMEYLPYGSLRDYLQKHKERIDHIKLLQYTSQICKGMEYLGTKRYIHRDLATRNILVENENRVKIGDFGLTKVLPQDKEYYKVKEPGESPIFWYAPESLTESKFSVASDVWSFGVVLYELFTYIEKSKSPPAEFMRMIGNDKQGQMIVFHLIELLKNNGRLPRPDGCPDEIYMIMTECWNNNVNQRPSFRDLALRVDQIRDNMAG

Cn1sc(=O)n(Cc2ccccc2)c1=O [TDZD-8, 4-benzyl-2-methyl-1,2,4-thiadiazolidine-3,5-dione]
viability at 20 µM (primary AML specimens; Homo sapiens, 24 h, read-out: mean viability relative to untreated controls): 15%
treatment time that may also be effective (primary AML specimens; additional preliminary data, not shown): ≤ 5 min
mean time to achieve ≧50% cell death (primary AML specimens; bulk leukemia blast populations, 17 primary specimens): 2 h
Rapid kinetics (primary AML specimens; cell death kinetics): Yes
time within which most toxicity is evident (primary AML specimens; leukemia cells): 1 to 6 h
Cytotoxic AML (primary AML specimens; primary AML specimens): Yes
time of TDZD-8 exposure at which cell death was frequently evident (primary AML specimens; primary AML, bcCML, ALL and CLL specimens): ≤ 2 h
viability (primary AML specimens; three of 17 specimens, within 30 minutes): below 30%
viability at 20 µM (primary ALL specimens): 12.4%
viability at 20 µM (CD34+CD38− bcCML cells): 2.8%
viability at 20 µM (CD34+CD10− ALL cells): 22.3%
viability at 24 h, 20 μM [1]: 80.2%
erythroid colonies, normalized to untreated controls (normal progenitor cells): 94.79%
myeloid colonies, normalized to untreated controls (normal progenitor cells): 84.14%
CFU, normalized to untreated controls (AML progenitor cells): 7.3%
effect on the engraftment of normal specimens [2]: little to no effect
rapid uptake of YoPro-1 [3]: not evident in normal specimens
plasma membrane localized PKCα and β [4]: decreases
GI50 [5]: 8.3 µM
IC50 (All other tumor lines): > 100 µM
% Inhibition mean (GSK3B (GSK3 beta)): 99%
inhibition at 20 µM (GSK3B (GSK3 beta)): 98%
inhibition at 20 µM (ABL1): 70%
inhibition at 20 µM (CSNK2A1 (CK2 alpha 1)): 27%
inhibition (Jak2): little to no inhibition
inhibition at 20 µM (PRKCB2 (PKC beta II)): 99%
inhibition at 20 µM (STK6 (Aurora A)): 99%
inhibition at 20 µM (TEK (Tie2)): 9%
% Inhibition mean (TEK (Tie2); TDZD-8 20 μM): little to no inhibition
IC50 (CK-II): > 100 µM
IC50 (PKC): > 100 µM
